The source of these data is ChEMBL document CHEMBL4014283, “Structural insights of SmKDAC8 inhibitors: Targeting Schistosoma epigenetics through a combined structure-based 3D QSAR, in vitro and synthesis strategy” (Bioorg Med Chem, 2017).

The target in one series is T1, Histone deacetylase 8 (Homo sapiens, UniProt Q9BY41).
T1 sequence (Q9BY41 whole entry): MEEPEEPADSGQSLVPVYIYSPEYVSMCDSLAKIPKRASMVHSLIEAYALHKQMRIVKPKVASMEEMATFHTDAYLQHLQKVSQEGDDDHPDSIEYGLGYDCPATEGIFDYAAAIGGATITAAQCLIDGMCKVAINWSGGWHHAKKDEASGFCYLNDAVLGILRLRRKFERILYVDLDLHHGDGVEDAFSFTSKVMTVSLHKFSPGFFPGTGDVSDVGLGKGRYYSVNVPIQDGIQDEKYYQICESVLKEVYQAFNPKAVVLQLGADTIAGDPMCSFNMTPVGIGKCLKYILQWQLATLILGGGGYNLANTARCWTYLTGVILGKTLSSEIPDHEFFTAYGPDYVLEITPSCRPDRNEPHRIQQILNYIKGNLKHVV
Put plainly: (§1) Inhibition of full length human C-terminal His-tagged KDAC8 expressed in baculovirus expression system at 30 uM using (FAM)-labeled peptide as substrate after 60 mins by microfluidic assay relative to control. Conditions: 1 h, 30 µM.

For series [1], the target named is T2, Protein deacetylase HDAC6 (Homo sapiens, UniProt Q9UBN7).
T2 sequence (Q9UBN7 whole entry): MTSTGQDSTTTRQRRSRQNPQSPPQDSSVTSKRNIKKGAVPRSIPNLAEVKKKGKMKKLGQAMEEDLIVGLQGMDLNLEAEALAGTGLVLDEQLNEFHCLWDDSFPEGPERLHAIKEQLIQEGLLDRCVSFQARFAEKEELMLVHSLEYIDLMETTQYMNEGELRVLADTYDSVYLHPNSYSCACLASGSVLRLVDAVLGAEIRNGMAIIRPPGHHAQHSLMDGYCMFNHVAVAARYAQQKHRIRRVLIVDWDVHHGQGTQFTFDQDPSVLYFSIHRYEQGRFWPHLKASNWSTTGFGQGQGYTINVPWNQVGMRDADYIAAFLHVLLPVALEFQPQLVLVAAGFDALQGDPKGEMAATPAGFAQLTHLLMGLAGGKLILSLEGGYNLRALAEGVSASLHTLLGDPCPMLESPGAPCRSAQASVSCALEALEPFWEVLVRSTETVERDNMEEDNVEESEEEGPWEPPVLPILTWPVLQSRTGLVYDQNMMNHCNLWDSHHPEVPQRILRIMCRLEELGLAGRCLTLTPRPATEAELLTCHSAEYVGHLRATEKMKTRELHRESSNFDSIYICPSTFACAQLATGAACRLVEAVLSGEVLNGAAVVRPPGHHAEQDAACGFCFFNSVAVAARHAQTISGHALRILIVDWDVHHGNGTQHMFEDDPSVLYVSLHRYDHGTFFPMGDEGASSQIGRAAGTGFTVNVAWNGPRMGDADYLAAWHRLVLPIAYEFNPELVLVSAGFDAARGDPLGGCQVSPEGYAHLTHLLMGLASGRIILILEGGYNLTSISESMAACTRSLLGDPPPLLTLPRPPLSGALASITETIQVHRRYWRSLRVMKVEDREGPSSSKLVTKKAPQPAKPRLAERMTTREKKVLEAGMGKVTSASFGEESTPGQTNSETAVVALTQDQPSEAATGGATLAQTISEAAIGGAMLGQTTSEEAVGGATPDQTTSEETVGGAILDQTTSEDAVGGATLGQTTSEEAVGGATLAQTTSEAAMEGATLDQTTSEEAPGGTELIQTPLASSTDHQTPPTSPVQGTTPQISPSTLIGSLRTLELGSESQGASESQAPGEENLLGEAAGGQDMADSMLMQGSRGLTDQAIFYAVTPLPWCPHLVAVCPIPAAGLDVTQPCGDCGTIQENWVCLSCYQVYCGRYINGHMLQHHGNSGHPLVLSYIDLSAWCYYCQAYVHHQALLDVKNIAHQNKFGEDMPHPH
As to the kind of experiment: (§2) Inhibition of human KDAC6 expressed in baculovirus expression system at 30 uM using FITC-Histone 4 acetylated peptide as substrate after 60 mins by microfluidic assay. Conditions: 1 h, 30 µM.

Series [2] addresses KDAC3/NCOR2 (histone deacetylase 3/nuclear receptor corepressor 2 complex) (Homo sapiens, UniProt O15379). As to the kind of experiment: (§3) Inhibition of full length human C-terminal His-tagged KDAC3/N-terminal GST-tagged human NCOR2 (395 to 489 residues) expressed in baculovirus expression system at 30 uM using FITC-p53 acetylated peptide as substrate after 60 mins by microfluidic assay. The settings on record: probe FITC-p53 acetylated peptide.

Series [3] deals with KDAC1 (histone deacetylase 1) (Homo sapiens, UniProt Q13547). Put plainly: (§4) Inhibition of full length human C-terminal FLAG/His-tagged KDAC1 expressed in baculovirus expression system at 30 uM using substrate A after 60 mins by microfluidic assay relative to control. Conditions: probe substrate A.
Sequence of KDAC1 (histone deacetylase 1) (Q13547 whole entry): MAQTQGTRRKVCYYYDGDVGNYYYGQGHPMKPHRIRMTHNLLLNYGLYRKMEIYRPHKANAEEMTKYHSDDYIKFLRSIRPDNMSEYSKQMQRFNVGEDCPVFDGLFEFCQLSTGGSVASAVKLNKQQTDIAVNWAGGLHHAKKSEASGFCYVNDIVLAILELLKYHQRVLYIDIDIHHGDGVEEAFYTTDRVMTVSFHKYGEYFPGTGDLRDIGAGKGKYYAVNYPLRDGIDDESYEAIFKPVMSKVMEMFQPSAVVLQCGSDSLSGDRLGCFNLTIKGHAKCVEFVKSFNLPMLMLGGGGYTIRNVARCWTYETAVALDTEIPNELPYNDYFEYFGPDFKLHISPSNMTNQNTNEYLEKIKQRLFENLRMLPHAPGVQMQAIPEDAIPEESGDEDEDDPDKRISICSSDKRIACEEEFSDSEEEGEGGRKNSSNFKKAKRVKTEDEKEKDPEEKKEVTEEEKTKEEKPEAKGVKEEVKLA
Series [4] deals with T3, Histone deacetylase 8 (Schistosoma mansoni) (UniProt A5H660).
T3 sequence (whole entry): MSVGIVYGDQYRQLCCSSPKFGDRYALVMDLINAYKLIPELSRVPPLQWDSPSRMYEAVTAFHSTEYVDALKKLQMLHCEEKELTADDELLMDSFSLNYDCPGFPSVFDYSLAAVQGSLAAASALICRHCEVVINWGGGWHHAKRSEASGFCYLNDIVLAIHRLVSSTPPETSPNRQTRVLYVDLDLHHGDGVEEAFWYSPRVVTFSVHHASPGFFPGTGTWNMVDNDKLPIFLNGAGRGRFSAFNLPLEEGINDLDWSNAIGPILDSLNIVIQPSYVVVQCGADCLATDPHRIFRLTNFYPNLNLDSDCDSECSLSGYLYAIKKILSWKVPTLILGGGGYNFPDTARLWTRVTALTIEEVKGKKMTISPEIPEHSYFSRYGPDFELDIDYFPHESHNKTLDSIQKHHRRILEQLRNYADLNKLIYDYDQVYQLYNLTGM
Put plainly: Inhibition of Schistosoma mansoni KDAC8 at 30 uM using (FAM)-labeled peptide as substrate after 60 mins by microfluidic assay.

The target of series [5] is T4, KDAC8 (histone deacetylase 8) (Homo sapiens, UniProt Q9BY41).
T4 sequence (Q9BY41 whole entry): T1 sequence (Q9BY41 whole entry)
Described as §1. The settings on record: probe (FAM)-labeled peptide.

The target in series [6] is T5, KDAC6 (protein deacetylase HDAC6) (Homo sapiens, UniProt Q9UBN7).
T5 sequence (Q9UBN7 whole entry): T2 sequence (Q9UBN7 whole entry)
The series is described as §2. The settings on record: probe FITC-Histone 4 acetylated peptide.

Series [7] concerns the target Histone deacetylase 3/Nuclear receptor corepressor 2 (HDAC3/NCoR2) (Homo sapiens, UniProt O15379+Q9Y618). The description is as §3. The settings on record: 1 h, 30 µM.
The target of the next series is Histone deacetylase 1 (Homo sapiens, UniProt Q13547). The description is as §4. The settings on record: 1 h, 30 µM.
Sequence of Histone deacetylase 1 (Q13547 whole entry): as the sequence (Q13547 whole entry) above

Calls of active or inactive are those of the source. The calls are words filed in the database; no cut-off is given here.

Sequence of KDAC3/NCOR2 (histone deacetylase 3/nuclear receptor corepressor 2 complex) (O15379 whole entry, the tested form may be a part): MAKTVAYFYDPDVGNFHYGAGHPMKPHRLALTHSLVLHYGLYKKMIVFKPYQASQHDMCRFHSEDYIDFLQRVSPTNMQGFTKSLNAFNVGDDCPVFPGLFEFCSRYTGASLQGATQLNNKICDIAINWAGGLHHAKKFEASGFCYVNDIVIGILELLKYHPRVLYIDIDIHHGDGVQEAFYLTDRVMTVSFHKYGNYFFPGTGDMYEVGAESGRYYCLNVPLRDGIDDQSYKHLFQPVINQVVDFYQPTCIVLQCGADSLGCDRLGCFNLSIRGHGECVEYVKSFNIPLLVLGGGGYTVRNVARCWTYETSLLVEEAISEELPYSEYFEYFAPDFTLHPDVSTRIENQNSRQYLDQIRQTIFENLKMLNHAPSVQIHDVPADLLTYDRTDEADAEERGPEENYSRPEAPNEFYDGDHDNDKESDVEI
Sequence of KDAC3/NCOR2 (histone deacetylase 3/nuclear receptor corepressor 2 complex) (Q9Y618 whole entry, further chain, the tested form may be a part): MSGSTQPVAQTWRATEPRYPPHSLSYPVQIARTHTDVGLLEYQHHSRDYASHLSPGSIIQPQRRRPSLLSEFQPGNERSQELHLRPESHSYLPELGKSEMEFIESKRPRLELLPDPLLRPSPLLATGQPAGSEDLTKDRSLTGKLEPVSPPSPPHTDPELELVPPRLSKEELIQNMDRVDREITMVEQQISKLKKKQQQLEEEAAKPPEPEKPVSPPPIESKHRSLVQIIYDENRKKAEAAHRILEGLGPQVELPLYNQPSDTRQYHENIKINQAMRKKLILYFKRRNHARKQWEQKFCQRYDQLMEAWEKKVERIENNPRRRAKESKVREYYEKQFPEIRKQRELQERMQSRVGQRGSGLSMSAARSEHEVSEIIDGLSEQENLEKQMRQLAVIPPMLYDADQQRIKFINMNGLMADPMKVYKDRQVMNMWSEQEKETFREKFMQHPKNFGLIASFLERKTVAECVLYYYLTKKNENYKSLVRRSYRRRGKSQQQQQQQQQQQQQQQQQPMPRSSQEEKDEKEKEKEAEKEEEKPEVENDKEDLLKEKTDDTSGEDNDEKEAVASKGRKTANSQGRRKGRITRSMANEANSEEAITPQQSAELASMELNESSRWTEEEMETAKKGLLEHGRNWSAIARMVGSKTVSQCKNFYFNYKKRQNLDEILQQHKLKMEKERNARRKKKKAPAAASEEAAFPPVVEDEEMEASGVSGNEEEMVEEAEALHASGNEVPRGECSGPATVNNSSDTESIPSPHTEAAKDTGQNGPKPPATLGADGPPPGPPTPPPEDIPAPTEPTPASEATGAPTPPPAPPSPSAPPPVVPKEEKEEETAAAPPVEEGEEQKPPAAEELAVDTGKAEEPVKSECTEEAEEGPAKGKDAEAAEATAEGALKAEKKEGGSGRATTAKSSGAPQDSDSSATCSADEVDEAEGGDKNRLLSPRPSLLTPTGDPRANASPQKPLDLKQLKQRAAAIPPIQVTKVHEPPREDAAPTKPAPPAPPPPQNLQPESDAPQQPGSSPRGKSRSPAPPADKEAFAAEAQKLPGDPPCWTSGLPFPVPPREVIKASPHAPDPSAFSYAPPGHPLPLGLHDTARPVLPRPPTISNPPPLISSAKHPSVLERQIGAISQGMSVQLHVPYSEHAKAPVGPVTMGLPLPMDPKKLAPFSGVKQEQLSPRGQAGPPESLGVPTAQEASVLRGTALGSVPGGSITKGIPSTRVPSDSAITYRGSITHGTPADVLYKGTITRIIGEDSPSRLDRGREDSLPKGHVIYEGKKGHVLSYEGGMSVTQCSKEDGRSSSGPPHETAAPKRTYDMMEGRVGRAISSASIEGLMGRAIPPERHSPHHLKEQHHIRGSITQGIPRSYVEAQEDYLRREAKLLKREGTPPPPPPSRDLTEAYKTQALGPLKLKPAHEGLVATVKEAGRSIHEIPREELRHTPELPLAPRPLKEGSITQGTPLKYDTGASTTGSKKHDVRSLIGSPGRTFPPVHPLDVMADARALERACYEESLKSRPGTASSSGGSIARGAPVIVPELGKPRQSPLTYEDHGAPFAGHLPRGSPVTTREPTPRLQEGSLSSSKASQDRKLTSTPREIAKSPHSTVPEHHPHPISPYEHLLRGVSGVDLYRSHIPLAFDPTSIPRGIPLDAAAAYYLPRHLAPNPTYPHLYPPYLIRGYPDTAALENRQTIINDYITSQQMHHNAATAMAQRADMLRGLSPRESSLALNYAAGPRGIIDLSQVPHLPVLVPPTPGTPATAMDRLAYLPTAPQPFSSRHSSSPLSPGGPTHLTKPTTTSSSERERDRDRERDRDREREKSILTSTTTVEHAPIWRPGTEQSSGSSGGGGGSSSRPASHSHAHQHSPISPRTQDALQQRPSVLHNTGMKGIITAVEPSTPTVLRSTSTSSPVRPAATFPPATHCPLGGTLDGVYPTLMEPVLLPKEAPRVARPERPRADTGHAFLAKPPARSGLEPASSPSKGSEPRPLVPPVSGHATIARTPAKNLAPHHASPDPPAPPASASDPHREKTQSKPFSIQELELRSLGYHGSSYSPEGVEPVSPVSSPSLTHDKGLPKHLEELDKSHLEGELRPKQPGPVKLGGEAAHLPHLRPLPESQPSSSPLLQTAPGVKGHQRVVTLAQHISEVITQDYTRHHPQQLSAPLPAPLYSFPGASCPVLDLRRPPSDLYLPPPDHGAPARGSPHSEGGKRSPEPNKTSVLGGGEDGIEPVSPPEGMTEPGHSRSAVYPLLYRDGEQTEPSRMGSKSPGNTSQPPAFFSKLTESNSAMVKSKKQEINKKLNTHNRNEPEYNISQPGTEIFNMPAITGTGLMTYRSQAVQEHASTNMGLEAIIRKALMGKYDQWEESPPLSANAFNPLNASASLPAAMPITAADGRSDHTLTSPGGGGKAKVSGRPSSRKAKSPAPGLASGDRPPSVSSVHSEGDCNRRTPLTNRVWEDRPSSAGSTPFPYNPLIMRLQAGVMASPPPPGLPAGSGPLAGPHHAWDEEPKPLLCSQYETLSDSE
Sequence of Histone deacetylase 3/Nuclear receptor corepressor 2 (HDAC3/NCoR2) (O15379 whole entry): as the sequence (O15379 whole entry, the tested form may be a part) above
Sequence of Histone deacetylase 3/Nuclear receptor corepressor 2 (HDAC3/NCoR2) (Q9Y618 whole entry): as the sequence (Q9Y618 whole entry, further chain, the tested form may be a part) above

The term inhibition denotes the share of the control response that was lost under treatment. For the molecule `CC1=NN(c2ccccc2)C(=O)C1/N=N/c1ccc(S(N)(=O)=O)cc1` (stereo not given), the “inhibition (INH)” value (on Histone deacetylase 8; in series [1]) was “Not Active” throughout. Besides, the inhibition at 1 h, 30 µM in [2] worked out at 6%; in series [3], 1%. The inhibition result in [4] was “inactive”.

On to `FC(F)(F)c1cccc(OCC2CN=C(S)O2)c1` (stereo not given), for which the inhibition at 1 h, 30 µM amounted to 16% in series [5], 3% in series [6], 6% in series [2] and 2% in series [3]. Besides, the inhibition in series [4] was 2%.

For the molecule `O=C(Nc1cccc([N+](=O)[O-])c1)c1ccc2ccccc2c1O`, the “inhibition (INH)” value (at Histone deacetylase 8; in series [1]) was “Not Active” in each case. Moreover, the figures for the inhibition at 1 h, 30 µM in [2] and in series [3] were 10% and 3%, respectively. Further, the inhibition result in series [4] is “inactive”.

For the molecule `CCOC(=O)C(Cc1ccc(O)cc1)Nc1nc2ccccc2o1` (stereo not given), the “inhibition (INH)” value (on Histone deacetylase 8; in [1]) was “Not Active” in each case. Further, the inhibition at 1 h, 30 µM in [2] is 7%; in [3], 1%. Moreover, the inhibition result in series [4] was “inactive”.

`CCOC(=O)c1[nH]c(C(=O)O)c(OC(=O)CC)c1C`: the “inhibition (INH)” value (against Histone deacetylase 8; in series [1]; in [7]) was “Not Active” in each case. In series [3], this molecule had an inhibition at 1 h, 30 µM of 5%. Further, the inhibition entry in [4] is “inactive”.

For the molecule `O=C(O)Cc1ccc(/N=N/c2c(O)c(C(=O)O)cc3ccccc23)cc1`, the inhibition at 1 h, 30 µM in series [5] turned out to be 19%; in series [6], 3%; in series [2] it was 1%; in series [3] it was 2%. The inhibition result in series [4] was “inactive”.

On to `CC1=CC(C)(C)N=C(S)N1c1cccc2cc(S(=O)(=O)O)ccc12`, for which the “inhibition (INH)” value (at Histone deacetylase 8; in [1]) was “Not Active” throughout. The inhibition at 1 h, 30 µM in [2] was 1%; in series [3] it was 3%. For the same molecule, in series [4], the inhibition was 9%.

In the case of `Cc1cc(OCCCCOc2ccc(C#N)cc2)ccc1[N+](=O)[O-]`, the inhibition at 1 h, 30 µM in series [5] was determined as 19%; in series [6], 3%. Further, the “inhibition (INH)” value (in series [7]; against Histone deacetylase 1) was “Not Active” in each case. Further, the inhibition entry in [4] is “inactive”.

Take `CCOC(=O)Cc1cc(=O)[nH]n(-c2ccccc2)c1=O`: the inhibition at 1 h, 30 µM in [5] came to 3%; in series [6], 2%; in series [2] it was 1%; in series [3] it was 2%. This molecule also registered an inhibition in series [4] of 1%.
